# Measurements from paper PMC10111423, “Antimalarial Imidazopyridines Incorporating an Intramolecular Hydrogen Bonding Motif: Medicinal Chemistry and Mechanistic Studies” (ACS Infectious Diseases, 2023).
# How the values were obtained:
# [1] = In vitro microsomal stability, mouse liver microsomes; format: in vitro ADME; settings: 1 μM, 0.4 mg/mL protein
# Experimental: (§1) Xenotech, Kansas, USA), suspended in 0.1 M phosphate buffer (pH 7.4). (Details of this assay are described in the Supporting Information.) page 20: fold to attain six assay concentrations of 100-0.001 μg/mL. […] was used as the reference compound in this assay. The highest concentration of DMSO, which was used as the negative control, had no measurable effect on cell viability. After 44 hours of exposure of the cells to the test compounds, a solution of MTT was added. This was followed by an additional 4 hours of incubation at 37 °C. The assay plates were centrifuged, medium removed, and DMSO was added to the crystals. The amount of formazan was ascertained by measuring the absorbance at 540 nm. GraphPad Prism software was then used to generate IC50 values through a non-linear dose-response curve analysis. β-Hematin Inhibition Assay 20 mM stock solutions of controls and test compounds were made in DMSO. A solution […] was added to every well in columns 1-11 of a 96-well plate. 140 μL of water and 40 μL of 305.5 μM NP-40 were added to column 12 to mediate the formation of beta-hematin. 20 μL of test compounds (20 mM) were added to column 12 and 100 μL of this solution serially diluted to column 2, leaving column 1 blank (0 μM of test compound). 178.8 μL aliquot of hematin stock was suspended in 20 ml of a 1 M acetate buffer at pH 4.9. 100 μL of this hematin suspension was then added into each well, and the plates were incubated for ±5 hrs at 37°C. Subsequently, 32 μL of pyridine solution (20% water, 20% acetone, 10% 2M HEPES buffer at pH 7.4 and 50% pyridine) and 60 μL of acetone were added to all wells. The absorbances of plate wells were recorded at 405 nm on a SpectraMax plate reader. Sigmoidal dose-response curves with variable slopes were fitted to the absorbance data using GraphPad Prism to obtain the IC50 values for each compound. In vitro Microsomal Stability Assay The in vitro microsomal stability assay was performed in duplicate in a 96-well micro titre […] individually in human (pool of 50, mixed gender), rat (pool of 711, male Sprague Dawley) and mouse (pool of 1634, male CD1) liver microsomes (final protein concentration of 0.4 mg/mL; Xenotech, Kansas, USA), suspended in 0.1M phosphate buffer (pH 7.4). Incubations were S20 page 21: started by addition of NADPH (1 mM) as cofactor and shaken for 30 minutes at 37 °C. The reactions were then quenched by adding 300 μL of ice-cold acetonitrile containing internal standard (carbamazepine, 0.0236 μg/mL) and centrifuged. The supernatant was transferred to a fresh 96-well plate and analysed by LC-MS/MS (Agilent Rapid Resolution HPLC, AB SCIEX 4500 MS). The relative loss of parent compound over time was monitored and plots (concentration vs. time) were prepared per compound to determine the first order rate constant for compound depletion. This was in turn used to calculate half-life, in vitro intrinsic clearance and in vivo hepatic extraction ratio.6 Metabolite Identification Studies […] microsomes (MLM, male mouse CD1, Lot No. 1510043, Xenotech), magnesium chloride (5 mM) and NADPH (1 mM) in sodium phosphate buffer (100 mM, pH 7.4) for 60 minutes while shaking. The samples were then prepared by ice-cold acetonitrile precipitation, centrifuged, and filtered for LC-MS/MS analysis. […] Fluorescence Live-cell Microscopy […] […]
# [2] = In vitro microsomal stability, human liver microsomes; format: in vitro ADME; settings: 1 μM, 0.4 mg/mL protein
# Experimental: as §1
"Microsomal EH (hepatic extraction ratio), mouse [1]","Microsomal EH (hepatic extraction ratio), human [2]",SMILES
0.81,0.54,"CCN(CCNc1cc2[nH]c(C3CC3)nc2cn1)Cc1ccc(Cl)cc1O [Compound 5, 5-Chloro-2-(((2-((2-cyclopropyl-1H-imidazo[4,5-c]pyridin-6-yl)amino)ethyl)(ethyl)amino)methyl)phenol]"
0.90,0.71,"CCN(CCNc1cc2[nH]c(C3(C)CC3)nc2cn1)Cc1ccc(Cl)cc1O [Compound 6, 5-Chloro-2-((ethyl(2-((2-(1-methylcyclopropyl)-1H-imidazo[4,5-c]pyridin-6-yl)amino)ethyl)amino)methyl)phenol]"
0.81,0.85,"CCN(CCNc1cc2[nH]c(-c3cccc(C(F)(F)F)c3)nc2cn1)Cc1ccc(Cl)cc1O [Compound 14, 5-Chloro-2-((ethyl(2-((2-(3-(trifluoromethyl)phenyl)-1H-imidazo[4,5-c]pyridin-6-yl)amino)ethyl)amino)methyl)phenol]"
0.88,0.60,"CCN(CCNc1cc2[nH]c(C3CCCC3)nc2cn1)Cc1ccc(Cl)cc1O [Compound 1, 5-Chloro-2-(((2-((2-cyclopentyl-1H-imidazo[4,5-c]pyridin-6-yl)amino)ethyl)(ethyl)amino)methyl)phenol]"
0.84,0.80,"CCN(CCNc1cc2[nH]c(-c3ccc(C(F)(F)F)nc3)nc2cn1)Cc1ccc(Cl)cc1O [Compound 19, 5-Chloro-2-((ethyl(2-((2-(6-(trifluoromethyl)pyridin-3-yl)-1H-imidazo[4,5-c]pyridin-6-yl)amino)ethyl)amino)methyl)phenol]"
